# Values quoted from earlier work, collected in PubChem BioAssay AID1259409 (Chemical Carcinogenesis Research Information System (CCRIS), 2018).
# Tested on: rodent chemically induced tumor inhibition, incidence and multiplicity
# Experiment: CCRIS tumor inhibitor studies
Structure (SMILES),"tumour outcome (control, treated, inhibition, significance) (Carcinogen: TRANS-5-AMINO-3-[2-(5-NITRO-2-FURYL)VINYL]-1,2,4-OXADIAZOLE;SQL8506, 28754-68-9, Carcinogen: TRANS-5-AMINO-3-[2-(5-NITRO-2-FURYL)VINYL]-1,2,4-OXADIAZOLE;SQL8506, 28754-68-9, Dose [Inhibitor]: 150 MG/KG 16 HR BEFORE THE 1ST CARCINOGEN DOSE FOLLOWED BY ADDITIONAL DOSES IMMEDIATELY BEFORE EACH DOSE OF CARCINOGEN (, Route [Inhibitor]: INTRAPERITONEAL, Species: MOUSE, Strain/Sex: CD-1/FEMALE, Target Tissue: Type of Lesion: HEMATOPOIETIC SYSTEM: MYELOID LEUKEMIA, Dose [Carcinogen]: 1 G/KG 2/D FOR 5 D EVERY 4 WK FOR 3 COURSES OF TREATMENT, Promoter: NONE USED)","tumour outcome (control, treated, inhibition, significance) (Carcinogen: TRANS-5-AMINO-3-[2-(5-NITRO-2-FURYL)VINYL]-1,2,4-OXADIAZOLE;SQL8506, 28754-68-9, Carcinogen: TRANS-5-AMINO-3-[2-(5-NITRO-2-FURYL)VINYL]-1,2,4-OXADIAZOLE;SQL8506, 28754-68-9, Dose [Inhibitor]: 150 MG/KG 16 HR BEFORE THE 1ST CARCINOGEN DOSE FOLLOWED BY ADDITIONAL DOSES IMMEDIATELY BEFORE EACH DOSE OF CARCINOGEN (, Route [Inhibitor]: INTRAPERITONEAL, Species: MOUSE, Strain/Sex: CD-1/FEMALE, Target Tissue: Type of Lesion: LYMPHOID TISSUE: NONTHYMIC LYMPHOMA, Dose [Carcinogen]: 1 G/KG 2/D FOR 5 D EVERY 4 WK FOR 3 COURSES OF TREATMENT, Promoter: NONE USED)","tumour outcome (control, treated, inhibition, significance) (Carcinogen: TRANS-5-AMINO-3-[2-(5-NITRO-2-FURYL)VINYL]-1,2,4-OXADIAZOLE;SQL8506, 28754-68-9, Carcinogen: TRANS-5-AMINO-3-[2-(5-NITRO-2-FURYL)VINYL]-1,2,4-OXADIAZOLE;SQL8506, 28754-68-9, Dose [Inhibitor]: 150 MG/KG 16 HR BEFORE THE 1ST CARCINOGEN DOSE FOLLOWED BY ADDITIONAL DOSES IMMEDIATELY BEFORE EACH DOSE OF CARCINOGEN (, Route [Inhibitor]: INTRAPERITONEAL, Species: MOUSE, Strain/Sex: CD-1/FEMALE, Target Tissue: Type of Lesion: LYMPHOID TISSUE: THYMIC LYMPHOMA, Dose [Carcinogen]: 1 G/KG 2/D FOR 5 D EVERY 4 WK FOR 3 COURSES OF TREATMENT, Promoter: NONE USED)","tumour outcome (control, treated, inhibition, significance) (Carcinogen: TRANS-5-AMINO-3-[2-(5-NITRO-2-FURYL)VINYL]-1,2,4-OXADIAZOLE;SQL8506, 28754-68-9, Carcinogen: TRANS-5-AMINO-3-[2-(5-NITRO-2-FURYL)VINYL]-1,2,4-OXADIAZOLE;SQL8506, 28754-68-9, Dose [Inhibitor]: 150 MG/KG 16 HR BEFORE THE 1ST CARCINOGEN DOSE FOLLOWED BY ADDITIONAL DOSES IMMEDIATELY BEFORE EACH DOSE OF CARCINOGEN (, Route [Inhibitor]: INTRAPERITONEAL, Species: MOUSE, Strain/Sex: CD-1/FEMALE, Target Tissue: Type of Lesion: STOMACH: SQUAMOUS SARCOMA, Dose [Carcinogen]: 1 G/KG 2/D FOR 5 D EVERY 4 WK FOR 3 COURSES OF TREATMENT, Promoter: NONE USED)","tumour outcome (control, treated, inhibition, significance) (Carcinogen: 3'-METHYL-4-DIMETHYLAMINOAZOBENZENE, 55-80-1, Dose [Inhibitor]: 118 UG SELENIUM AS HIGH SELENIUM YEAST/GM IN DIET DAILY STARTING 1 WK PRIOR TO START OF CARCINOGEN TREATMENT AND CONTINU, Route [Inhibitor]: ORAL, Species: RAT, Strain/Sex: SPRAGUE-DAWLEY/MALE, Target Tissue: Type of Lesion: LIVER: ADENOCARCINOMA, Dose [Carcinogen]: 0.05% IN DIET DAILY FOR 8 WK, Promoter: NONE USED)","tumour outcome (control, treated, inhibition, significance) (Carcinogen: 4-(METHYLNITROSAMINO)-1-(3-PYRIDYL)-1-BUTANONE, 64091-91-4, Dose [Inhibitor]: 0, 3.75 PPM IN DIET FOR 3 WK BEGINNING 1 WK PRIOR TO CARCINOGEN DOSE (STUDY DURATION: 18 WK), Route [Inhibitor]: ORAL, Species: MOUSE, Strain/Sex: STRAIN-A/FEMALE, Target Tissue: Type of Lesion: LUNG: TUMOR, Dose [Carcinogen]: 10 UMOL IN 0.1 ML SALINE ONCE, Promoter: NONE USED)","tumour outcome (control, treated, inhibition, significance) (Carcinogen: 4-(METHYLNITROSAMINO)-1-(3-PYRIDYL)-1-BUTANONE, 64091-91-4, Dose [Inhibitor]: 0, 3.75 PPM IN DIET FOR 15 WK BEGINNING 1 WK POST CARCINOGEN DOSE (STUDY DURATION: 18 WK), Route [Inhibitor]: ORAL, Species: MOUSE, Strain/Sex: STRAIN-A/FEMALE, Target Tissue: Type of Lesion: LUNG: TUMOR, Dose [Carcinogen]: 10 UMOL IN 0.1 ML SALINE ONCE, Promoter: NONE USED)","tumour outcome (control, treated, inhibition, significance) (Carcinogen: 7,12-DIMETHYLBENZ[A]ANTHRACENE (DMBA) [57-97-6], Dose [Inhibitor]: 20 UG/D GIVEN 2 WK BEFORE DMBA AND DAILY FOR 1 WK (STUDY DURATION: 120 D), Route [Inhibitor]: ORAL (GAVAGE), Species: RAT, Strain/Sex: WISTAR/FEMALE (12,?)/(12,12), Target Tissue: Type of Lesion: MAMMARY GLAND: CARCINOMA, Dose [Carcinogen]: 12 MG ONCE (STUDY DURATION: 120 D))","tumour outcome (control, treated, inhibition, significance) (Carcinogen: 7,12-DIMETHYLBENZ[A]ANTHRACENE, 57-97-6, Dose [Inhibitor]: 0, 0.2 PPM IN DIET BEGINNING 3 D PRIOR TO CARCINOGEN DOSE AND CONTINUING FOR 8 MO (STUDY DURATION: 8 MO), Route [Inhibitor]: ORAL, Species: MOUSE, Strain/Sex: BALB/FEMALE, Target Tissue: Type of Lesion: MAMMARY GLAND: ADENOCARCINOMA, Dose [Carcinogen]: 1 MG/WK FOR 6 WK, Promoter: NONE USED)","tumour outcome (control, treated, inhibition, significance) (Carcinogen: 7,12-DIMETHYLBENZ[A]ANTHRACENE, 57-97-6, Dose [Inhibitor]: 0, 2 PPM IN DIET BEGINNING 3 D PRIOR TO CARCINOGEN DOSE AND CONTINUING FOR 8 MO (STUDY DURATION: 8 MO), Route [Inhibitor]: ORAL, Species: MOUSE, Strain/Sex: BALB/FEMALE, Target Tissue: Type of Lesion: MAMMARY GLAND: ADENOCARCINOMA, Dose [Carcinogen]: 1 MG/WK FOR 6 WK, Promoter: NONE USED)","tumour outcome (control, treated, inhibition, significance) (Carcinogen: AZOXYMETHANE [25843-45-2], Dose [Inhibitor]: 10 PPM IN DIET FOR 56 WK BEGINNING 2 WK PRIOR TO FIRST CARCINOGEN DOSE (STUDY DURATION: 56 WK), Route [Inhibitor]: ORAL, Species: RAT, Strain/Sex: F344/MALE, Target Tissue: Type of Lesion: COLON: ADENOMA OR ADENOCARCINOMA, Dose [Carcinogen]: 15 MG/KG BW 1X/WK FOR 2 WK (STUDY DURATION: 56 WK), Promoter: NONE)","tumour outcome (control, treated, inhibition, significance) (Carcinogen: AZOXYMETHANE [25843-45-2], Dose [Inhibitor]: 15 PPM IN DIET FOR 56 WK BEGINNING 2 WK PRIOR TO FIRST CARCINOGEN DOSE (STUDY DURATION: 56 WK), Route [Inhibitor]: ORAL, Species: RAT, Strain/Sex: F344/MALE, Target Tissue: Type of Lesion: COLON: ADENOMA OR ADENOCARCINOMA, Dose [Carcinogen]: 15 MG/KG BW 1X/WK FOR 2 WK (STUDY DURATION: 56 WK), Promoter: NONE)","tumour outcome (control, treated, inhibition, significance) (Carcinogen: N-METHYL-N-NITROSOUREA, 684-93-5, Dose [Inhibitor]: 5 PPM IN DIET DAILY FOR 128 D STARTING 7 D AFTER CARCINOGEN TREATMENT AND CONTINUING FOR DURATION OF STUDY (STUDY DURATI, Route [Inhibitor]: ORAL, Species: RAT, Strain/Sex: SPRAGUE-DAWLEY/FEMALE, Target Tissue: Type of Lesion: MAMMARY GLAND: CARCINOMA, Dose [Carcinogen]: 50 MG/KG BW IN ACIDIFIED SALINE (PH 4.0) ONCE AT AGE 50 D, Promoter: NONE USED)","tumour outcome (control, treated, inhibition, significance) (Carcinogen: N-METHYL-N-NITROSOUREA, 684-93-5, Dose [Inhibitor]: 6 PPM IN DIET DAILY FOR 128 D STARTING 7 D AFTER CARCINOGEN TREATMENT AND CONTINUING FOR DURATION OF STUDY (STUDY DURATI, Route [Inhibitor]: ORAL, Species: RAT, Strain/Sex: SPRAGUE-DAWLEY/FEMALE, Target Tissue: Type of Lesion: MAMMARY GLAND: CARCINOMA, Dose [Carcinogen]: 50 MG/KG BW IN ACIDIFIED SALINE (PH 4.0) ONCE AT AGE 50 D, Promoter: NONE USED)","tumour outcome (control, treated, inhibition, significance) (Carcinogen: NONE USED, Dose [Inhibitor]: 1 PPM IN DIET DAILY STARTING AT AGE 13.8 MO AND CONTINUING FOR LIFE (STUDY DURATION: LIFE), Route [Inhibitor]: ORAL, Species: MOUSE, Strain/Sex: C3H/FEMALE, Target Tissue: Type of Lesion: MAMMARY GLAND: ADENOCARCINOMA, Promoter: NONE USED)","tumour outcome (control, treated, inhibition, significance) (Carcinogen: NONE USED, Dose [Inhibitor]: 1 PPM IN DIET DAILY STARTING AT WEANING AND CONTINUING FOR LIFE (STUDY DURATION: LIFE), Route [Inhibitor]: ORAL, Species: MOUSE, Strain/Sex: C3H/FEMALE, Target Tissue: Type of Lesion: MAMMARY GLAND: ADENOCARCINOMA, Promoter: NONE USED)","tumour outcome (control, treated, inhibition, significance) (Carcinogen: NONE USED, Dose [Inhibitor]: 1 PPM IN DIET DAILY STARTING AT WEANING AND CONTINUING THROUGH AGE 13.8 MO FOL LOWED BY CONTROL DIET FOR LIFE (STUDY DUR, Route [Inhibitor]: ORAL, Species: MOUSE, Strain/Sex: C3H/FEMALE, Target Tissue: Type of Lesion: MAMMARY GLAND: ADENOCARCINOMA, Promoter: NONE USED)"
NCCCCNCCCN,"7/137 (5%), 2/31 (6%), -20%, not calculated","8/137 (6%), 1/31 (3%), 50%, not calculated","22/137 (16%), 4/31 (13%), 19%, not calculated","60/137 (44%), 7/31 (23%), 48%, not calculated",–,–,–,–,–,–,–,–,–,–,–,–,–
C[Se]CCC(N)C(=O)O (configuration not stated),–,–,–,–,"11/12 (92%), 9/14 (64%), 30%, p 0.04","100%, 96%, 4%, not significant","100%, 100%, 0%, not significant","33%, 0%, 100%","12/31 (39%), 6/21 (29%), 26%, not calculated","12/31 (39%), 6/23 (26%), 33%, not calculated","76%, 64%, 16%, not significant","76%, 89%, -17%, not significant","90%, 95%, -6%, not significant","90%, 80%, 11%, not significant","20/26 (77%), 12/26 (46%), 40%, p<0.05","20/26 (77%), 7/26 (27%), 65%, p<0.005","20/26 (77%), 18/26 (69%), 10%, not significant"
